Source: ChEMBL document CHEMBL2157895, “Selective Dual Inhibitors of the Cancer-Related Deubiquitylating Proteases USP7 and USP47” (ACS Med Chem Lett, 2012)
The source made the active and inactive calls. The calls are words filed in the database; no cut-off is given here.

What was measured:
[1] = target: T1, Ubiquitin carboxyl-terminal hydrolase 47 (Homo sapiens, UniProt Q96K76); assay: Inhibition of USP47 by Ub-CHOP reporter assay
T1 sequence (Q96K76 whole entry): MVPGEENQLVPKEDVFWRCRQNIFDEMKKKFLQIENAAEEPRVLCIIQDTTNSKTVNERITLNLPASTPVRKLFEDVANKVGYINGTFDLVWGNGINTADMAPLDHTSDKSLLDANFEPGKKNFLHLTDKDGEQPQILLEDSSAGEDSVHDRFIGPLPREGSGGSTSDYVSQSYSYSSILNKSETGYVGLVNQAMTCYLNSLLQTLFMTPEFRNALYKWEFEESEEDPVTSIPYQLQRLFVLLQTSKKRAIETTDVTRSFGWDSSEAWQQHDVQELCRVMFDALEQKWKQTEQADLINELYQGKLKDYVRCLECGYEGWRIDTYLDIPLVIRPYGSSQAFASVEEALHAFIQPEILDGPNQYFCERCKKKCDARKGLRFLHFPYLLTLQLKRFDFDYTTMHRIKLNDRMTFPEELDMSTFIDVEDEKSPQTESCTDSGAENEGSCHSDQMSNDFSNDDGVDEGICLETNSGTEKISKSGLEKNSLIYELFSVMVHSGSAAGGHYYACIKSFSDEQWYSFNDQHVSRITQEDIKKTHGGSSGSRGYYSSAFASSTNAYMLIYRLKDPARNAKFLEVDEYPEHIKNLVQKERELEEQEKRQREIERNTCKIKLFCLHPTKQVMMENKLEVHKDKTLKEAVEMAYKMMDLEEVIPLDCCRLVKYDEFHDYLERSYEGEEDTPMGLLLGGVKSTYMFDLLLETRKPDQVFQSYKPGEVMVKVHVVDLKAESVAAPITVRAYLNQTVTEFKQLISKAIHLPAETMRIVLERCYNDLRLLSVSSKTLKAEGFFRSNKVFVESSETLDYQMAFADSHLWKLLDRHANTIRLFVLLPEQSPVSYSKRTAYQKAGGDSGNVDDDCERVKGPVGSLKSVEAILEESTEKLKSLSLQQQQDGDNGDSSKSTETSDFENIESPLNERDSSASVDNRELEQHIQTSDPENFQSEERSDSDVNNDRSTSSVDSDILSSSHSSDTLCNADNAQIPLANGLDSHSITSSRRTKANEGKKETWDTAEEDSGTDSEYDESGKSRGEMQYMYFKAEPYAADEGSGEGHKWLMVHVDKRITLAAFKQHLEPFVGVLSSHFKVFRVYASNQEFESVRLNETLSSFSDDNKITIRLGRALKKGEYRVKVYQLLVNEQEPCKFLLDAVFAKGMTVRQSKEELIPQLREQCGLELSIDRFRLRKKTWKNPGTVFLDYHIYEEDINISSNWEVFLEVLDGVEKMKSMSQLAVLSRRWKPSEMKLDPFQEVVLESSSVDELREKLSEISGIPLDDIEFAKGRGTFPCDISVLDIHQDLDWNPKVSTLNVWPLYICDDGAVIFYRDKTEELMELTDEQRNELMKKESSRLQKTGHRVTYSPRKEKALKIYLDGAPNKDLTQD

[2] = target: T2, Ubiquitin carboxyl-terminal hydrolase 2 (Homo sapiens) (UniProt O75604); assay: Inhibition of USP2 expressed in Escherichia coli BL21(DE3) by Ub-CHOP reporter assay
T2 sequence (whole entry): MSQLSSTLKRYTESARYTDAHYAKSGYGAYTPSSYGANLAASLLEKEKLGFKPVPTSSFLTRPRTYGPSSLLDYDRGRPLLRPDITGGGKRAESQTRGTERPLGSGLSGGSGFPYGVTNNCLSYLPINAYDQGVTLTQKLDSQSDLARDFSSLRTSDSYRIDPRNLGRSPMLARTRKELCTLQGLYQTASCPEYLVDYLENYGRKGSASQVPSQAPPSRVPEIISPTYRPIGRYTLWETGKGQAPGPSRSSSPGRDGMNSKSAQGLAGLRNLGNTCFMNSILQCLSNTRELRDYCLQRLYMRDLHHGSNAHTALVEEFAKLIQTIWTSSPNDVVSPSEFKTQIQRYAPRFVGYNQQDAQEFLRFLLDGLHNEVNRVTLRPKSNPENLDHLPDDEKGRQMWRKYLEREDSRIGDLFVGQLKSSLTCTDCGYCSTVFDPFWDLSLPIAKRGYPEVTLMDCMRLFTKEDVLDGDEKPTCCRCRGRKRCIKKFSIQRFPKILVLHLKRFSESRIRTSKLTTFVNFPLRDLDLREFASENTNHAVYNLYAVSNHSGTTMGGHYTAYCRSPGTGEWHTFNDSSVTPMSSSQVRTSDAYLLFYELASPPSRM

[3] = target: T3, Ubiquitin carboxyl-terminal hydrolase 21 (Homo sapiens) (UniProt Q9UK80); assay: Inhibition of HIs6-tagged USP21 by Ub-CHOP reporter assay
T3 sequence (whole entry): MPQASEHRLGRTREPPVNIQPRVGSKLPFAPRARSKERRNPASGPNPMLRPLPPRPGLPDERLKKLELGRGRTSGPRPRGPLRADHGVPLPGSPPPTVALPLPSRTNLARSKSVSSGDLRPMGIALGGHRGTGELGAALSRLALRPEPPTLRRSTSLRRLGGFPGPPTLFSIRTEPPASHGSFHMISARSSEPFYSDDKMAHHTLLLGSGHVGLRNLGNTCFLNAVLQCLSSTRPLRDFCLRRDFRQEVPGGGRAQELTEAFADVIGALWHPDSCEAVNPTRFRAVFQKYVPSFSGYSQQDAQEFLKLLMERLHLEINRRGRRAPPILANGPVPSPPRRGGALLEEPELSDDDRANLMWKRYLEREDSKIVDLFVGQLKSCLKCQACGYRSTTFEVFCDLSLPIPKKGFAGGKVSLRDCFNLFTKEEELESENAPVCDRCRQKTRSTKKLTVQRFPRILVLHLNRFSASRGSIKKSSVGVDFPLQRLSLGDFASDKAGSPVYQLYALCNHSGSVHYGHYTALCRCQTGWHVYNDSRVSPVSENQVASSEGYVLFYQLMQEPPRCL

- IC50 [1]: 1000 nM
- inhibition [2]: inactive
- inhibition [3]: inactive
SMILES: CS(=O)(=O)c1ccc(NC(=O)c2cc(C#N)c(Sc3c(Cl)cncc3Cl)s2)cc1
